This note sets out measurements from patent US20240166642A1, “INHIBITORS OF MYELOPEROXIDASE” (ASTRAZENECA AB, priority 2022, published 2024).

Test [1] concerns the target MPO (purified from HL60 cells) (Homo sapiens (Human), UniProt P05164). The experiment in a line: MPO activity (IC50), luminol chemiluminescence assay. It is filed as biochemical. The note with it: PBS pH7.4, luminol 100 μM, H2O2 50 μM, chemiluminescence recorded after 15 minutes. On the procedure: (§1) The experiments were performed in phosphate-buffered saline (PBS), pH7.4. A 10 mM luminol (A4695, Sigma Aldrich, St Louis, MO, USA) stock was prepared in distilled water and further diluted in PBS to a final concentration of 100 μM. H2O2 was prepared as 1 mM stock in PBS, yielding a final concentration of 50 μM after addition into the assay. The compounds were serially diluted in DMSO in a separate plate as a 100× stock solution, and MPO (purified from HL60 cells) and TPO (produced in insect cells, RSR Ltd, Cardiff, UK), were diluted to yield a final concentration of approximately 14 and 150 ng/mL, generating 5600 and 9300 light counts per seconds (LCPS) upon incubation with luminol.
(§2) The experiment was run by pipetting 2 μL 100× stock solution of the compound and 200 μL diluted enzyme in PBS into wells in a 96-well Optiplate (6005290, Perkin Elmer/Thermo Fischer, Waltham, MS, USA), followed by addition of 10 μL H2O2 containing PBS. Chemiluminescence measurement (Perkin Elmer Wallac Microbeta Trilux 1450-029 (12-detector), Turkuu, Finland) was started directly and recorded after 2, 10 and 15 minutes.

Test [2] concerns the target TPO (produced in insect cells, RSR Ltd) (Homo sapiens (Human), UniProt P07202). The experiment in a line: TPO activity (IC50), luminol chemiluminescence assay. The conditions noted are these: PBS pH7.4, luminol 100 μM, H2O2 50 μM, chemiluminescence recorded after 15 minutes. It counts as biochemical. On the procedure:
as §1, §2

Sequence of TPO (produced in insect cells, RSR Ltd) (P07202 19-933): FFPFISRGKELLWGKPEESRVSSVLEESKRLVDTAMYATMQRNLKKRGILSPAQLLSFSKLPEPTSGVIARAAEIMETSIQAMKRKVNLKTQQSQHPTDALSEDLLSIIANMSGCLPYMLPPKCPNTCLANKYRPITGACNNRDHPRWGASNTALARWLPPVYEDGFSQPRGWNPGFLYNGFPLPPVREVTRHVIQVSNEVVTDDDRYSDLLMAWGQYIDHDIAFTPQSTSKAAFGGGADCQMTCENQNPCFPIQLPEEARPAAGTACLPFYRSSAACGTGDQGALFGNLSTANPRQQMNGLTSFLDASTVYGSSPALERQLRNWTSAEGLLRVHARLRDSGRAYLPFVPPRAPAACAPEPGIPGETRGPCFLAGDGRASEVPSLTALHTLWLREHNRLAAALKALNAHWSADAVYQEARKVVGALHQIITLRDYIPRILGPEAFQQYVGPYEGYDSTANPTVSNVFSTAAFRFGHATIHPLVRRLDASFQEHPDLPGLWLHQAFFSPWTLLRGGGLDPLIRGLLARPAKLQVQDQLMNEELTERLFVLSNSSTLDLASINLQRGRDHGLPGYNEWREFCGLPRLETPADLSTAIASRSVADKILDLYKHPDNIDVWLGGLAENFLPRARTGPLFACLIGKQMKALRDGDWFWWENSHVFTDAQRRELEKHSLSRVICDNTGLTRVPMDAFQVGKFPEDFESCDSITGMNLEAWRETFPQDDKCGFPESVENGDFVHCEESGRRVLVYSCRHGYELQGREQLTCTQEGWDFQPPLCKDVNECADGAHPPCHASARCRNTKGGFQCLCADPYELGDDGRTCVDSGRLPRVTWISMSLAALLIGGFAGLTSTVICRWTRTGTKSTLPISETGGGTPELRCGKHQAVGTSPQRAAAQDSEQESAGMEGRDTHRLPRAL
Sequence of MPO (purified from HL60 cells) (P05164 49-745): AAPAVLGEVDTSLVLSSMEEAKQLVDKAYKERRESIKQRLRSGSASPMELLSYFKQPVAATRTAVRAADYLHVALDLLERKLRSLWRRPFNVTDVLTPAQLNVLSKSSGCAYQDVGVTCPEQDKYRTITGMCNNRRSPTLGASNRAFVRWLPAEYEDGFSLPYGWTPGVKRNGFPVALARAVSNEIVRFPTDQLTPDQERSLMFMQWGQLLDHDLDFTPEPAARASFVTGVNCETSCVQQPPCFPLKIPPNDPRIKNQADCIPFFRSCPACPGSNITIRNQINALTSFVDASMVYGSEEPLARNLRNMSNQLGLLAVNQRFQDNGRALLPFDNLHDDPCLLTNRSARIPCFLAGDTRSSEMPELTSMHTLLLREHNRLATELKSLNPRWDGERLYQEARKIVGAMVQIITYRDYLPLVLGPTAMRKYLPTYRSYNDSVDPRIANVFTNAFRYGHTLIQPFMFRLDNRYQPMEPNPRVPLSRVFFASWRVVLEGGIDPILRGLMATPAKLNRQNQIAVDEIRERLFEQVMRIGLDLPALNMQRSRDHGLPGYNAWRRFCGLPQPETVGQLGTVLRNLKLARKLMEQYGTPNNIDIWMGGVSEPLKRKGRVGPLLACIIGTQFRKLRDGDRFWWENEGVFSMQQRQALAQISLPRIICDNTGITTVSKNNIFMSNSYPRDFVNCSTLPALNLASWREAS

For the compound `O=c1[nH]c(=S)n(Cc2ccccc2C2CCC(F)CN2)c2nc[nH]c12` (stereo not drawn) [Example 15, 3-(2-(5-Fluoropiperidin-2-yl)benzyl)-2-thioxo-1,2,3,7-tetrahydro-6H-purin-6-one], the IC50 worked out at 16 nM in test [1] and 540 nM in test [2].

As to `O=c1[nH]c(=S)n(Cc2cccnc2C2CCCCN2)c2cc[nH]c12` (stereo not drawn) [Example 20, 1-((2-(Piperidin-2-yl)pyridin-3-yl)methyl)-2-thioxo-1,2,3,5-tetrahydro-4H-pyrrolo[3,2-d]pyrimidin-4-one], the values for the IC50 in test [1] and in test [2] were 46 nM and 2760 nM, respectively.

`O=c1[nH]c(=S)n(Cc2cccc3c2CNCC3)c2cc[nH]c12` [Example 23, 1-((1,2,3,4-Tetrahydroisoquinolin-8-yl)methyl)-2-thioxo-1,2,3,5-tetrahydro-4H-pyrrolo[3,2-d]pyrimidin-4-one]: the figures for the IC50 in test [1] and in test [2] were 10 nM and 380 nM, respectively.

With `NC1(c2ccc(Cn3c(=S)[nH]c(=O)c4[nH]ccc43)cc2)CCC1` [Example 24, 1-(4-(1-Aminocyclobutyl)benzyl)-2-thioxo-1,2,3,5-tetrahydro-4H-pyrrolo[3,2-d]pyrimidin-4-one], the IC50 in test [1] was found to be 12 nM; in test [2], 560 nM.

In the case of `O=c1[nH]c(=S)n(Cc2ccc3c(c2)CNC3)c2cc[nH]c12` [Example 25, 1-(Isoindolin-5-ylmethyl)-2-thioxo-1,2,3,5-tetrahydro-4H-pyrrolo[3,2-d]pyrimidin-4-one], the IC50 in test [1] worked out at 103 nM; in test [2], 570 nM.

Take `O=c1[nH]c(=S)n(Cc2cccc3c2CNC3)c2cc[nH]c12` [Example 26, 1-(Isoindolin-4-ylmethyl)-2-thioxo-1,2,3,5-tetrahydro-4H-pyrrolo[3,2-d]pyrimidin-4-one]: the IC50 in test [1] was determined as 13 nM; in test [2], 840 nM.

For `NC1(c2cccc(Cn3c(=S)[nH]c(=O)c4[nH]ccc43)c2)CCC1` [Example 27, 1-(3-(1-Aminocyclobutyl)benzyl)-2-thioxo-1,2,3,5-tetrahydro-4H-pyrrolo[3,2-d]pyrimidin-4-one], the IC50 in test [1] is 5 nM; in test [2], 670 nM.

As to `O=c1[nH]c(=S)n(Cc2ccccc2C2CCCNC2)c2cc[nH]c12` (stereo not drawn) [Example 28, 1-(2-(Piperidin-3-yl)benzyl)-2-thioxo-1,2,3,5-tetrahydro-4H-pyrrolo[3,2-d]pyrimidin-4-one], the IC50 in test [1] came to 3 nM; in test [2], 680 nM.

With `O=c1[nH]c(=S)n(Cc2ccccc2C2CCNCC2)c2cc[nH]c12` [Example 30, 1-(2-(Piperidin-4-yl)benzyl)-2-thioxo-1,2,3,5-tetrahydro-4H-pyrrolo[3,2-d]pyrimidin-4-one], the IC50 in test [1] came out at 29 nM; in test [2] it was 590 nM.
